These results are taken from US20090060861A1, “Stabilized Polypeptide Formulations” (NOVO Nordisk A/S, priority 2005, published 2009).

Read-outs that look alike come from different tables or passages of the source.

The target in one data set is human insulin (Homo sapiens, UniProt P01308).
The target of data set [1] is T1, insulin aspart (Asp^B28 human insulin) (Homo sapiens, UniProt P01308, P52D). The data set can be described thus: Chemical stability of the polypeptide, degradation products formed during storage. Particulars: insulin aspart compositions, 1-100 mM buffer; 3 months storage at 5° C. or 37° C.; data not shown.
T1 sequence (P01308 25-54 P52D): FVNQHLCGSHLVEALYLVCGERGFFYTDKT
T1 sequence (P01308 90-110): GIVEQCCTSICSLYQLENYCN
Data set [2] deals with T1, insulin aspart (Asp^B28 human insulin). Particulars: pH 7.4.
Protocol: Compositions comprising the buffer components covered by the present invention were prepared according to the above-mentioned and a reference composition containing 7 mM sodium phosphate as buffer component was prepared in parallel.
The target is the same in data set [3].
The mark [4] stands for this setting: human insulin, 6.7 mM buffer, n=12.
The mark [5] stands for this setting: insulin aspart 600 nmol/mL, 1-100 mM buffer, 37° C., shake 1200 rpm, n=12.

Sequence of human insulin (P01308 25-54 limits assumed): as the sequence (P01308 25-54 P52D) above, with D28P counted along it

As for `O=C(O)c1ccc(C(=O)O)c(C(=O)O)c1` [trimellitic acid, 1,2,4-benzenetricarboxylic acid], the “polypeptide stability (physical stability, ThT lag-time) compared to compositions comprising phosphate buffer” value at human insulin (setting [4]) is “increased”. For the same molecule, the “impact on chemical stability of the polypeptide (amount of degradation products formed)” value (“impact on chemical stability” for short) in data set [1] is reported as “No significant impact”. Moreover, the “polypeptide stability (physical stability, ThT lag-time) compared to compositions comprising phosphate buffer (7 mM)” value in data set [2] (setting [5]) was “increased”.

Turning to `CC[N+](CC)(CC)CC.[Cl-]` [T.E.A. chloride, tetraethylammonium chloride], at human insulin (setting [4]), the “polypeptide stability (physical stability, ThT lag-time) compared to compositions comprising phosphate buffer” value is reported as “increased”. The “impact on chemical stability” value in data set [3] is “No significant impact”. Besides, the “polypeptide stability (physical stability, ThT lag-time) compared to compositions comprising phosphate buffer (7 mM)” value in data set [2] (setting [5]) is listed as “increased”.

In the case of `Cl.NCC(N)=O` [glycinamid hydrochloride], the “polypeptide stability (physical stability, ThT lag-time) compared to compositions comprising phosphate buffer” value at human insulin is “increased”. For the same molecule, the “impact on chemical stability” value in data set [1] is “No significant impact”. Further, in data set [2], the “polypeptide stability (physical stability, ThT lag-time) compared to compositions comprising phosphate buffer (7 mM)” value is on record as “increased”.

Take `CC(N)(CO)CO` [AMPD, 2-amino-2-methyl-1,3-propanediol]: on human insulin (setting [4]), the “polypeptide stability (physical stability, ThT lag-time) compared to compositions comprising phosphate buffer” value is “increased”. For the same molecule, the “impact on chemical stability” value in data set [1] is recorded as “No significant impact”. The “polypeptide stability (physical stability, ThT lag-time) compared to compositions comprising phosphate buffer (7 mM)” value in data set [2] (setting [5]) is “increased”.

For the molecule `CCC(CC)(C(=O)O)C(=O)O` [diethylmalonic acid, diethylpropanedioic acid], the “polypeptide stability (physical stability, ThT lag-time) compared to compositions comprising phosphate buffer” value at human insulin (setting [4]) is “increased”. Besides, the “impact on chemical stability” value in data set [1] was “No significant impact”. The “polypeptide stability (physical stability, ThT lag-time) compared to compositions comprising phosphate buffer (7 mM)” value in data set [2] (setting [5]) was “increased”.
